Among the data in patent publication US7879876B2, “Sulfonamide derivatives and use thereof for the modulation of metalloproteinases” (Merck Serono SA, priority 2005, dated 2011) are inhibition and IC50 values, retold here.

Common to all, as to format: biochemical
Experiment [1] deals with 92 kDa gelatinase (MMP-9) (Homo sapiens, UniProt P14780). The experiment in a line: MMP-9 enzyme inhibition assay (coumarin-labeled peptide substrate). The conditions noted are these: read-out: percentage inhibition MMP9. The method, boiled down:
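Recombinant human MMP-9 (APMA-activated if needed) was assayed in 100 mM Tris-HCl pH 7.6, 100 mM NaCl, 10 mM CaCl2, 0.05% Brij 35, with McaPLGLDpaAR substrate at 37° C. for 2 h. Fluorescence was read at ex 320/em 405 nm over ten 3-fold compound doses (100 μM–5.1 nM) in duplicate. IC50 came from a four-parameter fit.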

The target of a further experiment is MMP-14 (Homo sapiens, UniProt P50281). Put plainly: MMP-14 enzyme inhibition assay (coumarin-labelled peptide substrate). The following applies: read-out: percentage inhibition MMP14. Summed up: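 Recombinant human enzyme, APMA-activated if necessary, was incubated with McaPLGLDpaAR substrate and compound (10 concentrations in duplicate, 100 μM to 5.1 nM) in Tris-HCl pH 7.6 with NaCl, CaCl2 and Brij 35 for 2 h at 37 °C. Fluorescence was read at 320/405 nm, and IC50 was taken from a four-parameter fit.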

The target of another experiment is human ADAM17 (TACE) (Homo sapiens, UniProt P78536). The experiment in a line: TACE enzyme inhibition assay. As to the method:
Compounds of the invention were tested to assess their activities as inhibitors of MMP-1, MMP-2, MMP-9, MMP-14, MMP-12 and TACE. MMP-9 Assay Protocol
Compounds of the invention can be tested for inhibitory activity against human ADAM17 in an assay using human Mca-(endo-1a-Dap(Dnp)-TNF-alpha(−5 to +6)amide as substrate (FEBS Letters, 2000, 275-279).
Stock solutions are prepared as followed: • Assay Buffer: 20 mM Hepes pH 7.5 (Fluka) containing 0.05% Brij 35 (Fluka) • Substrate: 6.1 mM human Mca-(endo-1a-Dap(Dnp)-TNF-alpha(−5 to +6)amide (Bachem) stock solution in 100% DMSO (stored at −20° C.); diluted to 5 μM in assay buffer. • Enzyme: Recombinant human ADAM17, appropriately diluted in assay buffer (1.5 μg/ml).
Test Compounds are prepared initially as 10 mM compound solution in 100% DMSO, diluted to 1 mM in 100% DMSO, then serially diluted 3-fold in 100% DMSO across a 96-well microtitre plate. Assay concentration range is typically between 100 μM to 0.01 nM. The assay is performed in a total volume of 100 μL per well in 96-well microtitre plates. Appropriate concentrations of test compounds dissolved in 10 μL of DMSO are added to the wells, followed by substrate solution (50 μL, 5 μM prepared by dilution of DMSO stock in assay buffer) and enzyme solution (40 μL). For each as say ten concentrations of test compound are examined in […]. Control wells lack either enzyme or test compound. The reactions are incubated at room temperature for 1.5 hours. The fluorescence at 405 nm is measured immediately with a fluorometer using 355 nm excitation, without stopping the reaction.
The effect of the test compound is determined from the dose response curve generated by the 10 duplicate concentrations of inhibitor. The IC50 (the concentration of compound required to give a 50% decrease in enzyme activity) is obtained by fitting data to the equation, Y=a+((b−a)/(1+(c/X)^d)). (Y=inhibition achieved for a particular dose; X=the dose in nM; a=minimum y or zero % inhibition; b=maximum y or 100% inhibition; c=is the IC50; d=is the slope). The result is rounded to one significant figure.

Molecules are shown by their SMILES. pIC50: −log10 of the molar value.

The term inhibition denotes the change of the read-out against control, counted positive when it falls. As a reminder, the pIC50 is −log10 of the IC50, conventionally taken in molar units. Read a low pIC50 as a large IC50.

Chain of human ADAM17 (TACE) (P78536 215-824): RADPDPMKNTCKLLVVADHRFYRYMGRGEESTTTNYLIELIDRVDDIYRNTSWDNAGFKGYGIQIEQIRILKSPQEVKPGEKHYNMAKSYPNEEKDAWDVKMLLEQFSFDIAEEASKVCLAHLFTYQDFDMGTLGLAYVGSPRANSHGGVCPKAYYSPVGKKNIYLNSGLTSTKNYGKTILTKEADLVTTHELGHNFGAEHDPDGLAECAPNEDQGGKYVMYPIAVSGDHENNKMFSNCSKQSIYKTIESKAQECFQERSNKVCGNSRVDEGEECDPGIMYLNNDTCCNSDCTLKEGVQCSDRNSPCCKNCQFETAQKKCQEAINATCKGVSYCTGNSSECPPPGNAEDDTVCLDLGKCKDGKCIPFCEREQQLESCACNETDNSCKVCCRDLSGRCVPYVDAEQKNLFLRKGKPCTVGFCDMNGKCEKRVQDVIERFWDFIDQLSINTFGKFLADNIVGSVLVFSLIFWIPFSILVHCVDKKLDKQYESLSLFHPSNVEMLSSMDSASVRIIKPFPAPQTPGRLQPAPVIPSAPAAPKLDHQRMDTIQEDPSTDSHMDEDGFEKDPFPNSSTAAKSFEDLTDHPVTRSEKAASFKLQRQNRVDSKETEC
Chain of 92 kDa gelatinase (MMP-9) (P14780 107-707 limits assumed): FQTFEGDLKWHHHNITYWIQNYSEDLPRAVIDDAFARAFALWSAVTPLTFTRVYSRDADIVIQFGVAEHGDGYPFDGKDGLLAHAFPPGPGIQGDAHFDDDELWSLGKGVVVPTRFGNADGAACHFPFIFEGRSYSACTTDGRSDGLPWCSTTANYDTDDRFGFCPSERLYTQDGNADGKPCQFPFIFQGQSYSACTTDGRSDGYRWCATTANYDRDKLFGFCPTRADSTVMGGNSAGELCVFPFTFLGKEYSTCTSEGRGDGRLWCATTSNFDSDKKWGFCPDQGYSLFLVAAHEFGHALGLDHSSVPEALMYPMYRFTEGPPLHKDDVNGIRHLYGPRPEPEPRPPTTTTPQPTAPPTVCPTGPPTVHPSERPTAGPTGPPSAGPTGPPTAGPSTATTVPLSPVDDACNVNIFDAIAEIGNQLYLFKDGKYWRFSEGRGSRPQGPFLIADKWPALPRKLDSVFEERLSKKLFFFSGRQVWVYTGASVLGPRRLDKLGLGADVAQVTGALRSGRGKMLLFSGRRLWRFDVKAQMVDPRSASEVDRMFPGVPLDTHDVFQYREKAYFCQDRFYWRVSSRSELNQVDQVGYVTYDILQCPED

In the case of `CC(C)(C)CC(CS(=O)(=O)N1CCc2cc(Cl)c(Cl)cc2C1)N(O)C=O` (stereo not drawn) [Example 42, N-(1-{[(6,7-dichloro-3,4-dihydroisoquinolin-2(1H)-yl)-sulfonyl]methyl}-3,3-dimethylbutyl)-N-hydroxyformamide], the inhibition at 5 µM in experiment [1] amounted to 35%. Also, at MMP-14, the inhibition at 0.1 µM was determined as 15% and the inhibition at 5 µM came out at 88%. On human ADAM17 (TACE), this molecule gave a pIC50 of 6.21.

Turning to `CC(C)(C)CC(CS(=O)(=O)N1CCc2cc(C(F)(F)F)ccc2C1)N(O)C=O` (stereo not drawn) [Example 43, N-[3,3-dimethyl-1-({[6-(trifluoromethyl)-3,4-dihydro-isoquinolin-2(1H)-yl]sulfonyl}methyl)butyl]-N-hydroxyformamide], in experiment [1], the inhibition at 0.1 µM amounted to 1% and the inhibition at 5 µM was found to be 68%. On MMP-14, the inhibition at 0.1 µM was found to be 14% and the inhibition at 5 µM is 89%. Also, the pIC50 at human ADAM17 (TACE) was less than 5.30.

On to `CC(C)c1ccc2c(c1)CCN(S(=O)(=O)C[C@H]([C@H]1CCCO1)N(O)C=O)C2` [Example 45, N-hydroxy-N-{(1S)-2-[(6-isopropyl-3,4-dihydroisoquinolin-2(1H)-yl)sulfonyl]-1-[(2R)-tetrahydrofuran-2-yl]ethyl}formamide], for which the inhibition at 5 µM is 47% in experiment [1] and 92% at MMP-14. Also, at human ADAM17 (TACE), the negative-log IC50 (pIC50) is 6.09.

For `O=CN(O)C(CS(=O)(=O)N1CCc2cc(C(F)(F)F)ccc2C1)[C@H]1CCCO1` (stereo partly drawn) [Example 47, N-hydroxy-N-(1-[(2R)-tetrahydrofuran-2-yl]-2-{[6-(tri-fluoromethyl)-3,4-dihydroisoquinolin-2(1H)-yl]sulfonyl}ethyl)formamide], the inhibition at 5 µM in experiment [1] amounted to 40%. For the same molecule, on MMP-14, the inhibition at 0.1 µM worked out at 7% and the inhibition at 5 µM was found to be 79%. The molecule further gave a negative-log IC50 (pIC50) at human ADAM17 (TACE) of 6.03.

As for `O=CN(O)C(CCO)CS(=O)(=O)N1CCc2ccc(Cl)cc2C1` (stereo not drawn) [Example 48, N-(1-{[(7-chloro-3,4-dihydroisoquinolin-2(1H)-yl)sulfonyl]-methyl}-3-hydroxypropyl)-N-hydroxyformamide], the inhibition at 5 µM in experiment [1] came out at 8%; at MMP-14, 41%. On human ADAM17 (TACE), this molecule had a pIC50 of 6.57.

Consider `O=CN(O)C(CO)CS(=O)(=O)N1CCc2cc(Cl)c(Cl)cc2C1` (stereo not drawn) [Example 49, N-[2-[(6,7-dichloro-3,4-dihydroisoquinolin-2(1H)-yl)-sulfonyl]-1-(hydroxymethyl)ethyl]-N-hydroxyformamide], for which the inhibition at 5 µM in experiment [1] amounted to 43%; at MMP-14 it was 86%. Further, on MMP-14, the inhibition at 0.1 µM is 14%. The molecule further gave a pIC50 at human ADAM17 (TACE) of 6.62.

`CC(C)C(CS(=O)(=O)N1CCc2ccc(-c3ccc(F)cc3)cc2C1)N(O)C=O` (stereo not drawn) [Example 50, N-[1-({[7-(4-fluorophenyl)-3,4-dihydroisoquinolin-2(1H)-yl]sulfonyl}methyl)-2-methylpropyl]-N-hydroxyformamide]: in experiment [1], the inhibition at 0.1 µM came out at 4% and the inhibition at 5 µM came out at 72%. On MMP-14, the inhibition at 0.1 µM was 13% and the inhibition at 5 µM turned out to be 83%. Moreover, the negative-log IC50 (pIC50) at human ADAM17 (TACE) is 6.40.

On to `O=CN(O)C(CS(=O)(=O)N1CCc2ccc(F)cc2C1)c1ccoc1` (stereo not drawn) [Example 52, N-[2-[(7-fluoro-3,4-dihydroisoquinolin-2(1H)-yl)sulfonyl]-1-(3-furyl)ethyl]-N-hydroxyformamide], for which the inhibition at 5 µM in experiment [1] was 10%; on MMP-14 it was 49%. For the same molecule, the pIC50 at human ADAM17 (TACE) was 7.04.

With `O=CN(O)C(CS(=O)(=O)N1CCc2ccc(F)cc2C1)C1CCN(Cc2ccccc2)CC1` (stereo not drawn) [Example 53, N-{1-(1-benzylpiperidin-4-yl)-2-[(7-fluoro-3,4-dihydro-isoquinolin-2(1H)-yl)sulfonyl]ethyl}-N-hydroxyformamide], the inhibition at 5 µM was 5% in experiment [1] and 34% at MMP-14. Besides, the negative-log IC50 (pIC50) against human ADAM17 (TACE) is 6.61.

`CC(C)CC(CS(=O)(=O)N1CCc2ccc(Br)cc2C1)N(O)C=O` (stereo not drawn) [Example 55, N-(1-{[(7-bromo-3,4-dihydroisoquinolin-2(1H)-yl)-sulfonyl]methyl}-3-methylbutyl)-N-hydroxyformamide]: in experiment [1], the inhibition at 5 µM worked out at 39%. At MMP-14, the inhibition at 0.1 µM was found to be 19% and the inhibition at 5 µM was found to be 86%. At human ADAM17 (TACE), this molecule showed a pIC50 of 6.80.

Regarding `CC(C)(CS(=O)(=O)N1CCc2ccc(Br)cc2C1)N(O)C=O` [Example 56, N-{2-[(7-bromo-3,4-dihydroisoquinolin-2(1H)-yl)sulfonyl]-1,1-dimethylethyl}-N-hydroxyformamide], the inhibition at 5 µM in experiment [1] came out at 2%; at MMP-14, 48%. For the same molecule, the pIC50 on human ADAM17 (TACE) was less than 5.30.

On to `CC(C)(C)c1ccc2c(c1)CN(S(=O)(=O)CC(COCc1ccccc1)N(O)C=O)CC2` (stereo not drawn) [Example 57, N-(2-(benzyloxy)-1-{[(7-tert-butyl-3,4-dihydroisoquinolin-2(1H)-yl)sulfonyl]methyl}ethyl)-N-hydroxyformamide], for which the inhibition at 5 µM (in experiment [1]; on MMP-14) was 0% each time. Further, on human ADAM17 (TACE), the pIC50 was less than 5.30.

On to `O=CN(O)C(COCc1ccccc1)CS(=O)(=O)N1CCc2ccc(Cl)cc2C1` (stereo not drawn) [Example 58, N-(2-(benzyloxy)-1-{[(7-chloro-3,4-dihydroisoquinolin-2(1H)-yl)sulfonyl]methyl}ethyl)-N-hydroxyformamide], for which the inhibition at 5 µM in experiment [1] stood at 41%. For the same molecule, at MMP-14, the inhibition at 0.1 µM came to 11% and the inhibition at 5 µM was 79%. The same molecule showed a pIC50 on human ADAM17 (TACE) of 7.25.

As to `O=CN(O)C(COCc1ccccc1)CS(=O)(=O)N1CCc2ccc(C(F)(F)F)cc2C1` (stereo not drawn) [Example 59, N-[2-(benzyloxy)-1-({[7-(trifluoromethyl)-3,4-dihydro-isoquinolin-2(1H)-yl]sulfonyl}methyl)ethyl]-N-hydroxyformamide], the figures for the inhibition at 5 µM (in experiment [1]; on MMP-14) were 32% and 43%, respectively. For the same molecule, at human ADAM17 (TACE), the pIC50 was less than 5.30.

`O=CN(O)C(CS(=O)(=O)N1CCc2ccc(F)cc2C1)C1CCCC1` (stereo not drawn) [Example 60, N-{1-cyclopentyl-2-[(7-fluoro-3,4-dihydroisoquinolin-2(1H)-yl)sulfonyl]ethyl}-N-hydroxyformamide]: the inhibition at 5 µM stood at 0% in experiment [1] and 16% on MMP-14. This molecule showed a pIC50 against human ADAM17 (TACE) of 7.10.

`O=CN(O)C(COc1ccccc1)CS(=O)(=O)N1CCc2ccc(Cl)cc2C1` (stereo not drawn) [Example 61, N-[2-[(7-chloro-3,4-dihydroisoquinolin-2(1H)-yl)sulfonyl]-1-(phenoxymethyl)ethyl]-N-hydroxyformamide]: the inhibition at 5 µM is 12% in experiment [1] and 43% at MMP-14. For the same molecule, the negative-log IC50 (pIC50) against human ADAM17 (TACE) is 7.05.

Turning to `O=CN(O)C1(CS(=O)(=O)N2CCc3ccc(Cl)cc3C2)CCCC1` [Example 62, N-(1-{[(7-chloro-3,4-dihydroisoquinolin-2(1H)-yl)-sulfonyl]methyl}cyclopentyl)-N-hydroxyformamide], the inhibition at 5 µM in experiment [1] turned out to be 1%; on MMP-14 it was 75%. On human ADAM17 (TACE), the pIC50 is 6.05.

Turning to `CCCCCC(C)(C)C(CS(=O)(=O)N1CCc2cc(C(F)(F)F)ccc2C1)N(O)C=O` (stereo not drawn) [Example 63, N-[2,2-dimethyl-1-({[6-(trifluoromethyl)-3,4-dihydro-isoquinolin-2(1H)-yl]sulfonyl}methyl)heptyl]-N-hydroxyformamide], the inhibition at 5 µM in experiment [1] was determined as 7%; on MMP-14, 9%. Moreover, the pIC50 at human ADAM17 (TACE) was less than 5.30.

As to `O=CN(O)C(CS(=O)(=O)N1CCc2ccc(Br)cc2C1)C1CCCC1` (stereo not drawn) [Example 64, N-{2-[(7-bromo-3,4-dihydroisoquinolin-2(1H)-yl)sulfonyl]-1-cyclopentylethyl}-N-hydroxyformamide], the inhibition at 5 µM in experiment [1] is 32%; on MMP-14, 71%. Besides, on human ADAM17 (TACE), the pIC50 is 7.04.
